The values that follow come from PMC7212467, “Lipid-Mediated Insertion of Toll-Like Receptor (TLR) Ligands for Facile Immune Cell Engineering” (Frontiers in Immunology, 2020).

One data set deals with purified mouse T cells. As to the kind of experiment: ELISA quantification of depoted lipid conjugates per T cell. It counts as cell-based. To be noted: for ng/mL (equivalent in solution): Table S1, estimated dose on depoted T cells; for # Ligands/T cell: Table S1, quantitation of cell surface TLR2 ligands by ELISA, depoted 10 μg/mL, 1 h; for fold increase in number of depoted molecules per T cell, 0.1 to 10 μg/mL depoting concentration: biotinylated ligand, cell lysate, streptavidin-HRP/TMB absorbance 450 nm, n = 3-4 independent samples. The protocol: (§1) Unless specified otherwise (in Figure 2), splenocytes, isolated B cells, or isolated T cells were incubated with CpG (5 μM), lipid-CpG (5 μM), Pam2CSK4 (10 μg/mL), or Pam3CSK4 (10 μg/mL) for 1 h in complete RPMI 1640 media supplemented with 10% fetal bovine serum. Splenocytes or T cells were then washed 3 times with PBS plus 1% bovine serum albumin to remove unbound ligand.
One million purified T cells were depoted with FAM-labeled lipid-CpG, biotinylated Pam2CSK4, or biotinylated Pam3CSK4 as described above, and then lysed with Glo lysis buffer (Promega) for 10 min at 25°C. Lysates were collected and plated onto Nunc MaxiSorp ELISA plates (Thermo). After 2 h of incubation at 25°C, FAM-labeled lipid-CpG was excited at 488 nm, and fluorescent emission at 520 nm was quantified by a microplate fluorescence reader. For Pam2CSK4 and Pam3CSK4 samples, horseradish peroxidase (HRP)-labeled streptavidin was added for 2 h incubation at 25°C, and then TMB substrate (Thermo) was added to observe changes in absorbance at 450 nm with a microplate spectrophotometer (BioTek).

The subject of data set [1] is bystander B cells (TLR2+ APCs). As to the kind of experiment: Bystander B-cell activation by TLR2 ligand-depoted T cells. It counts as cell-based, mouse. To be noted: for CD69 upregulation on B cells (fold MFI) / MHC II upregulation on B cells (fold MFI): T cells depoted 10 μg/mL 1 h, co-culture with B cells 2 days, MFI normalized to unstimulated B cells, n = 5-6 independent experiments; for CD69 expression, depoted vs same dose of soluble ligand / MHC II expression, depoted vs same dose of soluble ligand: soluble dose 10 ng/mL Pam2CSK4, 2 ng/mL Pam3CSK4; for B-cell activation by dose-matched soluble ligand: 10 ng/mL Pam2CSK4, 2 ng/mL Pam3CSK4. The protocol: as §1
Naïve or primed T cells were rested in complete RPMI 1640 media and supplemented with 10% FBS after depoting with Pam2CSK4 or Pam3CSK4 as described above. At selected time-points (0, 1, 2, 5, or 8 days post-depoting), T cells were washed and fixed with 4% paraformaldehyde (Sigma) for 15 min at 25°C. After washing 5 times with PBS + 1% BSA, at 1,000 × g for 5 min, T cells were cultured in complete RPMI 1640 media and supplemented with 10% FBS. Bystander B cells were added in co-cultures at a 1:1 B cell:T cell ratio. Naïve T cells without fixation were immediately cultured with bystander B cells. After 2 days of incubation at 37°C and 5% CO2, B-cell activation was measured by fluorescent staining for MHCII (clone M5/114.15.2; FITC) and CD69 (clone H1.2F3; PerCP/Cy5.5).

The test system of the next data set is polyclonal T cells. As to the kind of experiment: Cytokine quantification in T-cell supernatants by ELISA. The conditions noted are these: supernatants day 2, ELISA, αCD3/CD28 bead-stimulated T cells, n = 5. Type of data set: cell-based, mouse. As for the experimental part:
(§2) Naïve T cells were labeled with 5 μM of carboxyfluorescein succinimidyl ester (CFSE, ThermoFisher). Labeled cells were cultured in RPMI 1640 media and supplemented with 10% FBS as well as αCD3/CD28 coated Dynabeads^TM (Thermo) at a 1:5 bead to T cell ratio after depoting of lipid-CpG, Pam2CSK4, and/or Pam3CSK4 ligands. Non-depoted T cells were treated with soluble lipid-CpG (5 μM), Pam2CSK4 (10 μg/mL), and/or Pam3CSK4 (10 μg/mL). Cell proliferation was measured by CFSE dilution after 3 days, and cell activation was measured by fluorescent staining for CD25 (clone PC61; PE). Cell proliferation index and division index were calculated using FlowJo LLC software. Proliferation index is defined as the total number of cell divisions divided by the number of divided cells, whereas division index is the total number of cell divisions divided by the number of total original cells ([24]). Paracrine-enhanced proliferation of bystander T cells was measured as described above, with αCD3/CD28 beads added at a 2:5 bead to T-cell ratio.
T-cell activation was analyzed by collecting supernatants on day 2 post-activation for IL-2, IL-4, and IFNγ quantification by ELISA per manufacturer's instructions (BioLegend).
In general terms: An ELISA detects its analyte on a solid surface through an enzyme-linked reagent.

For data set [2] the following is noted: stated as much higher than the input concentration; cited from earlier work. The source says:
Thus, multiple lipid tails are a key design parameter for membrane delivery, and may be a simple way to enhance delivery of cargo to plasma membranes. One explanation of lipid-mediated insertion of TLR2 lipid-ligands, i.e., Pam2CSK4 and Pam3CSK4, into plasma membr ...

The test system of another data set is CD4+ and CD8+ T cells. Briefly: T-cell activation assay (CFSE proliferation, αCD3/CD28 beads). Type of data set: cell-based, mouse. The conditions noted are these: αCD3/CD28 beads 3 days, CFSE dilution. The protocol: as §2
Data set [3] deals with depoted and bystander CD4+ and CD8+ T cells. Briefly: Paracrine-enhanced proliferation: depoted T cells co-cultured with bystander T cells. Type of data set: cell-based, mouse. The conditions noted are these: αCD3/CD28 beads 3 days, n = 5. As for the experimental part:
as §2

Setting [4] is: co-culture with depoted T cells.
The mark [5] stands for this setting: co-culture with non-depoted T cells.

As to Pam2CSK4, in the data set on purified mouse T cells, the “ng/mL (equivalent in solution)” value is 9.6 ng/mL; the “# Ligands/T cell” value came to 1.3E+07; the “fold increase in number of depoted molecules per T cell, 0.1 to 10 μg/mL depoting concentration” value worked out at 130 fold. In data set [1], the “CD69 upregulation on B cells (fold MFI)” value was determined as 3.8 fold; the “MHC II upregulation on B cells (fold MFI)” value was 19 fold; the “B-cell activation by dose-matched soluble ligand” value was “none of the dose-matched soluble Pam2CSK4 and Pam3CSK4 activated B cells”. Besides, in data set [1] (2 days co-culture), the “CD69 expression, depoted vs same dose of soluble ligand” value turned out to be 2.2 fold and the “MHC II expression, depoted vs same dose of soluble ligand” value is listed as 5.3 fold. For the same substance, the “increase in IL-2 levels, depoted vs soluble ligand” value in the data set with polyclonal T cells was 2.7 fold. Also, the critical micelle concentration in data set [2] is above 10 µg/mL.

In the case of Pam3CSK4, in the data set on purified mouse T cells, the “ng/mL (equivalent in solution)” value was 1.8 ng/mL; the “# Ligands/T cell” value turned out to be 2.0E+06; the “fold increase in number of depoted molecules per T cell, 0.1 to 10 μg/mL depoting concentration” value came to 2.2 fold. Moreover, in data set [1] (2 days co-culture), the “MHC II expression, depoted vs 10 μg/mL of soluble ligand” value turned out to be 1.5 fold; the “CD69 expression, depoted vs same dose of soluble ligand” value was determined as 2.8 fold; the “MHC II expression, depoted vs same dose of soluble ligand” value worked out at 6.1 fold. In addition, in data set [1], the “CD69 upregulation on B cells (fold MFI)” value came to 4.4 fold; the “MHC II upregulation on B cells (fold MFI)” value is reported as 21 fold; the “B-cell activation by dose-matched soluble ligand” value was “none of the dose-matched soluble Pam2CSK4 and Pam3CSK4 activated B cells”. In addition, the “CD8+ T-cell proliferation index, effect of depoting” value with CD4+ and CD8+ T cells (Figure S5) was “did enhance”. In the data set with CD4+ and CD8+ T cells (n = 3), the “CD4+ T-cell division index, depoted vs soluble ligand” value is listed as 1.9 fold and the “CD8+ T-cell division index, depoted vs soluble ligand” value came to 2.9 fold. Also, in data set [3] (setting [4]), the “bystander CD4+ T-cell division index vs soluble ligand” value is reported as 1.3 fold and the “bystander CD8+ T-cell division index vs soluble ligand” value is on record as 1.3 fold. For the same substance, in data set [3] (setting [5]), the “CD4+ T-cell division index of depoted cells vs soluble ligand” value is reported as 1.6 fold and the “CD8+ T-cell division index of depoted cells vs soluble ligand” value came out at 1.6 fold. The “increase in IL-2 levels, depoted vs soluble ligand” value with polyclonal T cells came out at 3.4 fold. For the same substance, the critical micelle concentration in data set [2] was above 10 µg/mL.
